The text below walks through data of US20230069804A1, “METHODS AND COMPOSITIONS FOR MODULATING SPLICING” (SkyHawk Therapeutics, Inc., priority 2019, published 2023).

One series has as its system SMN protein. Briefly: SMN protein assay (MSD) in SMA patient fibroblasts GM03813. The conditions noted are these: Fibroblast, 48 h, SMA patient fibroblasts GM03813, 48 hours; read-out: SMN2 Potency - Protein: Protein FL EC50 (average). Type of series: cell-based. On the procedure: Compounds were tested on spinal muscular atrophy (SMA) patient fibroblasts (GM03813, Coriell) at doses ranging from 2.5 μM to 0.6 nM. 7000 cells/well were seeded in 96-well plates. Compounds were incubated for 48 hours and the cells were lysed with 100 μL of lysis buffer. 20 μL of lysate was used for SMN protein measurement by Mesoscale Discovery (MSD) assay developed by PharmOptima (Michigan). A standard curve prepared with SMN protein ranging from 1 μg/ml to 19.5 pg/ml was used in each MSD plate to calculate the absolute SMN protein amount in each sample.

In a further series the test system is SMN2. Briefly: Quantitative splicing assay (SMN) in SMA patient fibroblasts GM03813. Format: cell-based. Particulars: Homo sapiens, Fibroblast, SMA patient fibroblasts GM03813, 24 h; for IC50: read-out: SMN2 Potency - Splicing: Splicing D7 IC50 (average); for EC50: read-out: SMN2 Potency - Splicing: Splicing FL EC50 (average). On the procedure:
Spinal muscular atrophy (SMA) patient fibroblasts (GM03813, Coriell) are plated in 96-well plates at 50,000 cells/well. Immediately after plating, cells are dosed with compounds for 24 h at concentrations ranging from 2.5 μM to 0.6 nM (0.1% DMSO). Treated cells are lysed and cDNA synthesized using the Fast Advanced Cells-to-Ct kit (Thermofisher A35378) according to the manufacturer's instructions. 2 μL of each cDNA are used in qPCR reactions. The qPCR reactions are prepared in 384-well plates in 10 μL volume, using TaqMan™ Fast Advanced Master Mix (ThermoFisher; 4444965) with primers and probes shown in the table below. Reactions are run in a Quant Studio 6 qPCR instrument with default settings.
It is to be understood that the absolute stereochemistry for compounds of Table 3 is not determined.

Series [1] has as its system MDR1-MDCK cell monolayers. Briefly: MDCK-MDR1 permeability assay (BBB penetration potential). Format: in vitro ADME. The conditions noted are these: 5 μM, 120 minutes, pH 7.4. On the procedure: (§1) Each determination is performed in duplicate. […] Analytical conditions are outlined below.
(§2) Papp=(dCr/dt)×Vr/(A×CA) (1)

For a further series, the system named is MDR1. The series is described as above. The conditions noted are these: dog; for efflux ratio at 120 min, 5 μM: MDCK-MDR1, pH 7.4, Papp (B-to-A)/Papp (A-to-B), read-out: MDCK-MDR1: Efflux; for Papp A→B at 120 min, 5 μM / Papp B→A at 120 min, 5 μM: MDCK-MDR1, pH 7.4. Type of series: in vitro ADME. As to the method: as §1, §2

By EC50 is commonly meant the midpoint of the concentration-response curve. As a reminder, the IC50 is the midpoint of a concentration-inhibition curve. One may read the Papp A→B as how fast a substance crosses the layer from the apical side. Low values mean poor permeation, high ones ready permeation. The Papp B→A is how fast a substance crosses the layer from the basolateral side. For `CN(c1nnc(-c2cc(F)c(-c3cnn(C)c3)cc2O)s1)[C@@H]1C[C@H]2CC[C@H](N2)[C@@H]1F` (single isomer, unassigned) [Compound E-9B], in the series with SMN protein, the concentration giving a half-maximal response (EC50) was 16 to 50 nM. Moreover, in the series on SMN2, the half-maximal inhibitory concentration (IC50) was in the range of 0.01 to 15 nM and the EC50 fell in the range of 16 to 50 nM. For the same molecule, in series [1], the “MDCK-MDR1: % Recov A-B” value was found to be 48% and the “MDCK-MDR1: % Recov B-A” value is 67%. Also, in the series on MDR1, the efflux ratio at 120 min, 5 μM turned out to be 5; the Papp A→B at 120 min, 5 μM was found to be 5.38 ×10⁻⁶ cm/s; the Papp B→A at 120 min, 5 μM is 26 ×10⁻⁶ cm/s.

Regarding `CN(c1nnc(-c2ccc(-c3cnn(C)c3)cc2O)s1)[C@@H]1C[C@H]2CCC[C@H](N2)[C@@H]1F` [Compound E-1A, 2-(5-(((1S,2S,3R,5R)-2-fluoro-9-azabicyclo[3.3.1]nonan-3-yl)(methyl)amino)-1,3,4-thiadiazol-2-yl)-5-(1-methyl-1H-pyrazol-4-yl)phenol], the EC50 with SMN protein was 16 to 50 nM. Besides, in the series with SMN2, the IC50 is 51 to 100 nM and the EC50 was in the range of 101 to 500 nM. Further, in series [1], the “MDCK-MDR1: % Recov A-B” value amounted to 57% and the “MDCK-MDR1: % Recov B-A” value is 71%. In addition, in the series on MDR1, the efflux ratio at 120 min, 5 μM was found to be 6; the Papp A→B at 120 min, 5 μM is 5.28 ×10⁻⁶ cm/s; the basolateral-to-apical permeability (Papp B→A) at 120 min, 5 μM turned out to be 33.1 ×10⁻⁶ cm/s.

Turning to `CN(c1nnc(-c2ccc(-c3ccn(CF)c(=O)c3)cc2O)s1)[C@H]1C[C@@H]2CC[C@@H](N2)[C@H]1F` (single isomer, unassigned) [Compound E-15B], the EC50 with SMN protein was in the range of 16 to 50 nM. Also, in the series on SMN2, the half-inhibitory concentration (IC50) was in the range of 51 to 100 nM and the EC50 is 101 to 500 nM. Moreover, in series [1], the “MDCK-MDR1: % Recov A-B” value was determined as 88% and the “MDCK-MDR1: % Recov B-A” value was found to be 97%. In the series on MDR1, the efflux ratio at 120 min, 5 μM worked out at 66; the apical-to-basolateral permeability (Papp A→B) at 120 min, 5 μM was found to be 0.98 ×10⁻⁶ cm/s; the Papp B→A at 120 min, 5 μM was found to be 64.8 ×10⁻⁶ cm/s.

In the case of `CN(c1nnc(-c2ccc(-c3cnn(C)c3)cc2O)s1)[C@H]1C[C@@H]2CCC[C@@H](N2)[C@H]1F` [Compound E-1B, 2-(5-(((1R,2R,3S,5S)-2-fluoro-9-azabicyclo[3.3.1]nonan-3-yl)(methyl)amino)-1,3,4-thiadiazol-2-yl)-5-(1-methyl-1H-pyrazol-4-yl)phenol], the EC50 in the series with SMN protein was in the range of 0.01 to 15 nM. Further, in the series with SMN2, the IC50 lay in the range of 0.01 to 15 nM and the EC50 was in the range of 16 to 50 nM. In series [1], the “MDCK-MDR1: % Recov A-B” value stood at 53% and the “MDCK-MDR1: % Recov B-A” value is 68%. Also, in the series on MDR1, the efflux ratio at 120 min, 5 μM stood at 4; the Papp A→B at 120 min, 5 μM was 5.53 ×10⁻⁶ cm/s; the Papp B→A at 120 min, 5 μM was 20.4 ×10⁻⁶ cm/s.

In the case of `COc1cc(-c2ccc(-c3nnc(N(C4CC4)[C@@H]4C[C@H]5CC[C@H](N5)[C@@H]4F)s3)c(O)c2)cc(F)n1` [Compound E-2A, 2-(5-(cyclopropyl((1S,2S,3R,5R)-2-fluoro-8-azabicyclo[3.2.1]octan-3-yl)amino)-1,3,4-thiadiazol-2-yl)-5-(2-fluoro-6-methoxypyridin-4-yl)phenol], in the series on SMN protein, the EC50 lay within 0.01 to 15 nM. In the series with SMN2, the 50% inhibitory concentration (IC50) is 0.01 to 15 nM and the EC50 was 16 to 50 nM. Further, in series [1], the “MDCK-MDR1: % Recov A-B” value turned out to be 19% and the “MDCK-MDR1: % Recov B-A” value was 45%. For the same molecule, in the series on MDR1, the efflux ratio at 120 min, 5 μM came to 6; the Papp A→B at 120 min, 5 μM stood at 2.07 ×10⁻⁶ cm/s; the Papp B→A at 120 min, 5 μM was determined as 12 ×10⁻⁶ cm/s.

With `CN(c1nnc(-c2ccc(-c3cn[nH]c3)cc2O)s1)[C@H]1C[C@@H]2CC[C@H]([C@H]1F)N2C` (single isomer, unassigned) [Compound E-23A], the EC50 in the series on SMN protein fell in the range of 101 to 500 nM. Further, in the series with SMN2, the IC50 lay within 501 to 10000 nM and the EC50 is 501 to 10000 nM. Besides, in series [1], the “MDCK-MDR1: % Recov A-B” value turned out to be 78% and the “MDCK-MDR1: % Recov B-A” value is given as 90%. In the series on MDR1, the efflux ratio at 120 min, 5 μM stood at 9; the Papp A→B at 120 min, 5 μM was determined as 4.65 ×10⁻⁶ cm/s; the Papp B→A at 120 min, 5 μM was 41.2 ×10⁻⁶ cm/s.

Turning to `COc1cc(-c2ccc(-c3nnc(N(C)[C@@H]4C[C@H]5CC[C@H](N5)[C@@H]4F)s3)c(O)c2)ncn1` (single isomer, unassigned) [Compound E-5A], the EC50 in the series with SMN protein fell in the range of 16 to 50 nM. Further, in the series with SMN2, the IC50 fell in the range of 51 to 100 nM and the concentration giving a half-maximal response (EC50) is 51 to 100 nM. Besides, in series [1], the “MDCK-MDR1: % Recov A-B” value is 41% and the “MDCK-MDR1: % Recov B-A” value was 61%. Moreover, in the series with MDR1, the efflux ratio at 120 min, 5 μM came to 2; the Papp A→B at 120 min, 5 μM is 7.8 ×10⁻⁶ cm/s; the Papp B→A at 120 min, 5 μM is 19.1 ×10⁻⁶ cm/s.

`CN(c1nnc(-c2ccc(-c3cnn(C)c3)cc2O)s1)[C@H]1C[C@@H]2CC[C@@H](N2)[C@H]1F` [Compound E-3A, 2-(5-(((1R,2R,3S,5S)-2-fluoro-8-azabicyclo[3.2.1]octan-3-yl)(methyl)amino)-1,3,4-thiadiazol-2-yl)-5-(1-methyl-1H-pyrazol-4-yl)phenol]: the EC50 in the series with SMN protein fell in the range of 16 to 50 nM. Further, in the series on SMN2, the IC50 fell in the range of 101 to 500 nM and the EC50 was 101 to 500 nM. In addition, in series [1], the “MDCK-MDR1: % Recov A-B” value stood at 77% and the “MDCK-MDR1: % Recov B-A” value turned out to be 85%. Further, in the series on MDR1, the efflux ratio at 120 min, 5 μM is 3; the Papp A→B at 120 min, 5 μM is 10.5 ×10⁻⁶ cm/s; the Papp B→A at 120 min, 5 μM stood at 35.2 ×10⁻⁶ cm/s.
